Patent US20110212977A1, “P70 S6 KINASE INHIBITOR AND MTOR INHIBITOR COMBINATION THERAPY” (ELI LILLY AND COMPANY, priority 2008, published 2011)

Test system: U87MG human glioblastoma cells
Assay: Determination of In Vivo Efficacy: U87MG human glioblastoma xenograft tumor volume;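 also: subcutaneous flank xenografts in female athymic nude mice, tumor volume measured twice weekly, log volumes compared with the combined-vehicle control group by repeated measures ANOVA at each time point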
Conditions: for Tumor volume Mean / Signif. (difference in tumor volume relative to the vehicle group): 3 mg/kg of each agent orally once daily; for Tumor volume Mean: U87MG xenograft in nude mice
Description: The vehicle group is given the 2 vehicles (NaCMC Tween 80 and 35% PEG300/10% HPBCD/10% PS80 in H2O) in combination (0.1 mL of each). Treatment is continued for 23 days. Tumor volumes are measured using standard technique twice weekly and reported. Tumor size and body weight are recorded and analyzed bi-weekly. Tumor volume is estimated by using the formula: v=l×w^2×0.536 where l=larger of measured diameter and w=smaller of perpendicular diameter. The analysis uses SAS software version 8.2 (SAS Institutes Inc, Cary, N.C.) to analyze the log tumor volume data using a repeated measures ANOVA model with a spatial power covariance structure. For each time point taken, treatment groups are compared to the vehicle control group. Tumor volumes are given as means±standard errors for each treatment group determined from a repeated measures ANOVA on each group.
The data in the column headed Signif. indicates whether the difference relative to the vehicle group is statistically significant: NS=Not Significant (p>0.05); *=0.01<p≦0.05; **=0.001<<p≦0.01; ***=p≦0.001.

Row | Compound | Tumor volume Mean (Day 7) | Tumor volume Mean (Day 10) | Tumor volume Mean (Day 13) | Tumor volume Mean (Day 16) | Tumor volume Mean (Day 20) | Tumor volume Mean (Day 23) | Tumor volume Mean (Day 27) | Tumor volume Mean (Day 30) | Tumor volume Mean (Day 34) | Statistical difference from the vehicle group (in words) (whole study (throughout), 3 mg/kg orally once daily) | Signif. (difference in tumor volume relative to the vehicle group) (Day 7) | Signif. (difference in tumor volume relative to the vehicle group) (Day 10) | Signif. (difference in tumor volume relative to the vehicle group) (Day 13) | Signif. (difference in tumor volume relative to the vehicle group) (Day 16) | Signif. (difference in tumor volume relative to the vehicle group) (Day 20) | Signif. (difference in tumor volume relative to the vehicle group) (Day 23) | Signif. (difference in tumor volume relative to the vehicle group) (Day 27) | Signif. (difference in tumor volume relative to the vehicle group) (Day 30) | Signif. (difference in tumor volume relative to the vehicle group) (Day 34)
1 | CO[C@H]1CC2CC[C@@H](C)[C@@](O)(O2)C(=O)C(=O)N2CCCC[C@H]2C(=O)O[C@H]([C@H](C)C[C@@H]2CC[C@@H](O)[C@H](OC)C2)CC(=O)[C@H](C)/C=C(\C)[C@@H](O)[C@@H](OC)C(=O)[C@H](C)C[C@H](C)/C=C/C=C/C=C/1C [Rapamycin, rapamycin, reference compound] | 43.1 | 65.6 | 121.9 | 220.4 | 311.5 | 606.0 | 879.7 | 1160.8 | 1429.5 | not significantly different |  |  |  |  |  |  |  |  | 
2 | Cn1cc(-c2ccc(F)c(C(F)(F)F)c2)nc1C1CCN(c2ncnc3[nH]ncc23)CC1 [p70 S6 Kinase Inhibitor] | 43.8 | 79.6 | 118.7 | 159.0 | 233.6 | 539.1 | 928.6 | 1158.5 | 1256.6 |  | NS (NS=Not Significant (p>0.05)) | NS (NS=Not Significant (p>0.05)) | NS (NS=Not Significant (p>0.05)) | * (*=0.01<p≦0.05) | * (*=0.01<p≦0.05) | NS (NS=Not Significant (p>0.05)) | NS (NS=Not Significant (p>0.05)) | NS (NS=Not Significant (p>0.05)) | NS (NS=Not Significant (p>0.05))
